According to patent publication EP0184291B1, “Polyether antibiotic A80190” (ELI LILLY AND COMPANY, priority 1984, dated 1986):

Key:
NRRL 15878 = assay: Resistance to antibiotics, sensitivity discs on seeded ISP No. 2 agar; format: cell-based, Actinomadura oligospora
Procedure: (§1) Resistance to antibiotics was measured by padding antibiotic sensitivity discs onto the surface of seeded ISP No. 2 agar plates.
(§2) Table III lists the resistance of the strain to various antibiotics at the concentrations indicated and compares it to that of A. macra.

A. macra = assay: as above; format: cell-based
Procedure: as §1, §2

[1] = test system: Eimeria acervulina (Lilly strain 59), Eimeria maxima (strain FS-177) and Eimeria tenella (strain FS-155); assay: Coccidiosis test in broiler chicks, A80190 with nicarbazin (Test 1); format: in vivo; details: A80190 0 p.p.m. in ration

`NC[C@@H]1O[C@H](O[C@H]2[C@@H](O)[C@H](O[C@@H]3[C@@H](O)[C@H](N)C[C@H](N)[C@H]3O[C@H]3O[C@H](CN)[C@@H](O)[C@H](O)[C@H]3N)O[C@@H]2CO)[C@H](N)[C@@H](O)[C@@H]1O` [Neomycin] was tested, and the “Resistance to Antibiotics” value (NRRL 15878; Concentration 30 µg) was “-” and the “Resistance to Antibiotics” value (A. macra; Concentration 30 µg) was “-”.
`CN(C)[C@@H]1C(O)=C(C(N)=O)C(=O)[C@@]2(O)C(O)=C3C(=O)c4c(O)cccc4[C@@](C)(O)[C@H]3C[C@@H]12` [Tetracycline] was tested, and the “Resistance to Antibiotics” value (NRRL 15878; Concentration 30 µg) was “-”.
`CO[C@H]1/C=C/O[C@@]2(C)Oc3c(C)c(O)c4c(O)c(c(/C=N/N5CCN(C)CC5)c(O)c4c3C2=O)NC(=O)/C(C)=C\C=C\[C@H](C)[C@H](O)[C@@H](C)[C@@H](O)[C@@H](C)[C@H](OC(C)=O)[C@@H]1C` [Rifampin] was tested, and the “Resistance to Antibiotics” value (NRRL 15878; Concentration 5 µg) was “+”.
For Nicarbazin [reference compound], the “CECAL LESION SCORES” value ([1]; Nicarbazin 20 p.p.m.) was 3.19, the “INTESTINAL LESION SCORES” value ([1]; Nicarbazin 20 p.p.m.) was 9.13 and the “WEIGHT GAIN” value ([1]; Nicarbazin 20 p.p.m.) was 159 grams/per chicken. For the same molecule, the “CECAL LESION SCORES” value ([1]; Nicarbazin 30 p.p.m.) was 3.50, the “INTESTINAL LESION SCORES” value ([1]; Nicarbazin 30 p.p.m.) was 8.88 and the “WEIGHT GAIN” value ([1]; Nicarbazin 30 p.p.m.) was 174 grams/per chicken. The “CECAL LESION SCORES” value ([1]; Nicarbazin 40 p.p.m.) was 3.17, the “INTESTINAL LESION SCORES” value ([1]; Nicarbazin 40 p.p.m.) was 8.90 and the “WEIGHT GAIN” value ([1]; Nicarbazin 40 p.p.m.) was 211 grams/per chicken. For the same molecule, the “CECAL LESION SCORES” value ([1]; Nicarbazin 50 p.p.m.) was 3.19, the “INTESTINAL LESION SCORES” value ([1]; Nicarbazin 50 p.p.m.) was 8.56 and the “WEIGHT GAIN” value ([1]; Nicarbazin 50 p.p.m.) was 222 grams/per chicken. For the same molecule, the “CECAL LESION SCORES” value ([1]; Nicarbazin 125 p.p.m.) was 0.33, the “INTESTINAL LESION SCORES” value ([1]; Nicarbazin 125 p.p.m.) was 0.08 and the “WEIGHT GAIN” value ([1]; Nicarbazin 125 p.p.m.) was 279 grams/per chicken.
In the case of `CC1(C)S[C@@H]2[C@H](NC(=O)Cc3ccccc3)C(=O)N2[C@H]1C(=O)O` [Pencillin G], the “Resistance to Antibiotics” value (NRRL 15878; Concentration 10 units) was “+”.
In the case of `CCC[C@@H]1C[C@@H](C(=O)N[C@@H]([C@H]2O[C@H](SC)[C@H](O)[C@@H](O)[C@H]2O)[C@@H](C)O)N(C)C1` [Lincomycin], the “Resistance to Antibiotics” value (NRRL 15878; Concentration 2 µg) was “+” and the “Resistance to Antibiotics” value (A. macra; Concentration 2 µg) was “+”.
For `CO[C@H]1C[C@H](O[C@H]2[C@H](C)[C@@H](O[C@@H]3O[C@H](C)C[C@H](N(C)C)[C@H]3O)[C@@H](C)C[C@@]3(CO3)C(=O)[C@H](C)[C@@H](O)[C@@H](C)[C@@H](C)OC(=O)[C@@H]2C)O[C@@H](C)[C@@H]1O` [Oleandomycin], the “Resistance to Antibiotics” value (NRRL 15878; Concentration 15 µg) was “-”.
In the case of `[H]/N=C(/N)N[C@H]1[C@H](O)[C@@H](O)[C@H](O[C@@H]2O[C@@H](C)[C@](O)(C=O)[C@H]2O[C@@H]2O[C@@H](CO)[C@H](O)[C@@H](O)[C@@H]2NC)[C@@H](N/C(N)=N\[H])[C@@H]1O` [Streptomycin], the “Resistance to Antibiotics” value (NRRL 15878; Concentration 10 µg) was “-”.
In the case of `CC(=O)OCC1=C(C(=O)O)N2C(=O)[C@@H](NC(=O)Cc3cccs3)[C@H]2SC1` [Cephalothin], the “Resistance to Antibiotics” value (NRRL 15878; Concentration 30 µg) was “+”.
In the case of `NC[C@H]1O[C@H](O[C@H]2[C@H](O)[C@@H](O[C@H]3O[C@H](CO)[C@@H](O)[C@H](N)[C@H]3O)[C@H](N)C[C@@H]2N)[C@H](N)C[C@@H]1O` [Tobramycin], the “Resistance to Antibiotics” value (NRRL 15878; Concentration 10 µg) was “-” and the “Resistance to Antibiotics” value (A. macra; Concentration 10 µg) was “-”.
